Test results: patent US8993756B2 (Merck Sharp & Dohme Corp., priority 2011, dated 2015)

How the values were obtained:
JAK2 = JAK2 (Homo sapiens (Human), UniProt O60674); assay: Jak Biochemical HTRF Assay (JAK2); settings: recombinant GST-tagged catalytic domain, [ATP] 8.5 μM
JAK3 = JAK3 (Homo sapiens (Human), UniProt P52333); assay: Jak Biochemical HTRF Assay (JAK3); settings: recombinant GST-tagged catalytic domain, [ATP] 2.9 μM
Sequence of JAK3 (P52333 822-1111): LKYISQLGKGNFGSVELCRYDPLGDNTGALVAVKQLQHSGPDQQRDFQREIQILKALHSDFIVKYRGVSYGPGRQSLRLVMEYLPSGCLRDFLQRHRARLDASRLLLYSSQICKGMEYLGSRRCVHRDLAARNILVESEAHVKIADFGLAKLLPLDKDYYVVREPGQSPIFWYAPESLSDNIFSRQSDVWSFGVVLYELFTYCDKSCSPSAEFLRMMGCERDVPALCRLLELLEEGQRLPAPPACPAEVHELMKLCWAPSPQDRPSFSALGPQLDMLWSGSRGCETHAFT

Sequence of JAK2 (O60674 849-1124): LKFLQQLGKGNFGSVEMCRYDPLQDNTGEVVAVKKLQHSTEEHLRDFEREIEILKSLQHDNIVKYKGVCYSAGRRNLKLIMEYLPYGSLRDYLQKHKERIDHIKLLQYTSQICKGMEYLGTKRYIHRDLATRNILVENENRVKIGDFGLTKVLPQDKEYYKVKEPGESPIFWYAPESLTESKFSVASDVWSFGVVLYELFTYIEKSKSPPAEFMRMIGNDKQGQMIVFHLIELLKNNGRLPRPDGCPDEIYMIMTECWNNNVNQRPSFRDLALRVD

Structure (SMILES) | IC50 (JAK2; given as range class) [nM] | IC50 (JAK3; given as range class) [nM] | IC50 (JAK2) [nM] | IC50 (JAK3) [nM]
CCOC(=O)c1c[nH]c2ncnc(-c3ccsc3)c12 [Example 1-57, ethyl 4-thiophen-3-yl-7H-pyrrolo[2,3-d]pyrimidine-5-carboxylate] | 10 to 500 | 10 to 500 | – | –
C=C(CN)C(=O)Nc1cccc(-c2ncnc3[nH]cc(C(=O)OCC)c23)c1 [Example 13-2, Ethyl 4-(3-(2-(aminomethyl)acrylamido)phenyl)-7H-pyrrolo[2,3-d]pyrimidine-5-carboxylate] | – | < 10 | > 1500 | –
CCOC(=O)c1c[nH]c2ncnc(-c3cccc(OC(F)(F)F)c3)c12 [Example 1-26, ethyl 4-[3-(trifluoromethoxy)phenyl]-7H-pyrrolo[2,3-d]pyrimidine-5-carboxylate] | 10 to 500 | 10 to 500 | – | –
CCOC(=O)c1c[nH]c2ncnc(-c3ccc(C)c(N)c3)c12 [Example 1-22, ethyl 4-(3-amino-4-methylphenyl)-7H-pyrrolo[2,3-d]pyrimidine-5-carboxylate] | – | – | 78 | 4.6
CCOC(=O)c1c[nH]c2ncnc(-c3ccncc3)c12 [Example 1-14, ethyl 4-pyridin-4-yl-7H-pyrrolo[2,3-d]pyrimidine-5-carboxylate] | > 500 | 10 to 500 | – | –
C=CC(=O)Nc1cc(-c2ncnc3[nH]cc(C(=O)OCC)c23)ccc1OC [Example 4-15, ethyl 4-[3-(acryloylamino)-4-methoxyphenyl]-7H-pyrrolo[2,3-d]pyrimidine-5-carboxylate] | – | – | > 1500 | 0.11
CCOC(=O)c1c[nH]c2ncnc(-c3ccc(N4CCS(=O)(=O)CC4)cc3)c12 [Example 1-97, ethyl 4-[4-(1,1-dioxidothiomorpholin-4-yl)phenyl]-7H-pyrrolo[2,3-d]pyrimidine-5-carboxylate] | – | – | 348 | 6.8
CCOC(=O)c1c[nH]c2ncnc(-c3cnn(CCS(C)(=O)=O)c3)c12 [Example 1-92, ethyl 4-{1-[2-(methylsulfonyl)ethyl]-1H-pyrazol-4-yl}-7H-pyrrolo[2,3-d]pyrimidine-5-carboxylate] | > 500 | 10 to 500 | – | –
C=CC(=O)Nc1cc(-c2ncnc3[nH]cc(C(=O)OCC)c23)ccc1Cl [Example 4-14, ethyl 4-[3-(acryloylamino)-4-chlorophenyl]-7H-pyrrolo[2,3-d]pyrimidine-5-carboxylate] | – | – | > 1500 | 0.066
CCOC(=O)c1c[nH]c2ncnc(-c3cccc4c3CNC4=O)c12 [Example 1-73, ethyl 4-(1-oxo-2,3-dihydro-1H-isoindol-4-yl)-7H-pyrrolo[2,3-d]pyrimidine-5-carboxylate] | > 500 | 10 to 500 | – | –
C=C(C)C(=O)Nc1cccc(-c2ncnc3[nH]cc(C4=CCOCC4)c23)c1 [Example 21-5, N-(3-(5-(3,6-dihydro-2H-pyran-4-yl)-7H-pyrrolo[2,3-d]pyrimidin-4-yl)phenyl)methacrylamide] | – | – | > 1500 | 5
CCOC(=O)c1c[nH]c2ncnc(-c3cccc(-c4nc(Br)ns4)c3)c12 [Example 7-3, ethyl 4-(3-(3-bromo-1,2,4-thiadiazol-5-yl)phenyl)-7H-pyrrolo[2,3-d]pyrimidine-5-carboxylate] | > 500 | 10 to 500 | – | –
CCOC(=O)c1c[nH]c2ncnc(-c3ccc(OC)nc3)c12 [Example 1-93, ethyl 4-(6-methoxypyridin-3-yl)-7H-pyrrolo[2,3-d]pyrimidine-5-carboxylate] | > 500 | 10 to 500 | – | –
CC/C=C/C(=O)Nc1cccc(-c2ncnc3[nH]cc(C(=O)OCC)c23)c1 [Example 5-33, ethyl 4-{3-[(2E)-pent-2-enoylamino]phenyl}-7H-pyrrolo[2,3-d]pyrimidine-5-carboxylate] | > 500 | 10 to 500 | – | –
CCOC(=O)c1c[nH]c2ncnc(-c3cccc(NC(=O)/C=C/CN(C)C)c3)c12 [Example 16, Ethyl-4-(3-{[(2E)-4-(dimethylamino)but-2-enoyl]amino}phenyl)-7H-pyrrolo[2,3-d]-pyrimidine-5-carboxylate] | – | – | > 1500 | 0.2
COc1ccccc1-c1c[nH]c2ncnc(-c3ccc4cn(C)nc4c3)c12 [Example 33-2, 5-(2-methoxyphenyl)-4-(2-methyl-2H-indazol-6-yl)-7H-pyrrolo[2,3-d]pyrimidine] | – | – | > 1500 | 6.9
CCOC(=O)c1c[nH]c2ncnc(-c3cccc(-c4ccnc(C#N)n4)c3)c12 [Example 7-1, Ethyl 4-(3-(2-cyanopyrimidin-4-yl)phenyl)-7H-pyrrolo[2,3-d]pyrimidine-5-carboxylate] | > 500 | 10 to 500 | – | –
C=C(C)C(=O)Nc1cc(-c2ncnc3[nH]cc(C(=O)OCC)c23)cn(C)c1=O [Example 4-34, ethyl 4-{1-methyl-5-[(2-methylacryloyl)amino]-6-oxo-1,6-dihydropyridin-3-yl}-7H-pyrrolo[2,3-d]pyrimidine-5-carboxylate] | – | – | > 1500 | 1.1

Structure (SMILES) | IC50 (JAK2; given as range class) [nM] | IC50 (JAK3; given as range class) [nM] | IC50 (JAK2) [nM] | IC50 (JAK3) [nM]
CC#CC(=O)Nc1cccc(-c2ncnc3[nH]cc(C(=O)OCC)c23)c1 [Example 5-3, ethyl 4-[3-(but-2-ynoylamino)phenyl]-7H-pyrrolo[2,3-d]pyrimidine-5-carboxylate] | – | – | > 1500 | 0.072
CCOC(=O)c1c[nH]c2ncnc(-c3cnc4[nH]ccc4c3)c12 [Example 1-84, ethyl 4-(1H-pyrrolo[2,3-b]pyridin-5-yl)-7H-pyrrolo[2,3-d]pyrimidine-5-carboxylate] | 10 to 500 | 10 to 500 | – | –
C=C(C)C(=O)Nc1cc(C)cc(-c2ncnc3[nH]cc(C(=O)OCC)c23)c1 [Example 4-26, ethyl 4-{3-methyl-5-[(2-methylacryloyl)amino]phenyl}-7H-pyrrolo[2,3-d]pyrimidine-5-carboxylate] | – | – | > 1500 | 0.19
CCOC(=O)c1c[nH]c2ncnc(-c3ccnc(OC)c3)c12 [Example 1-89, ethyl 4-(2-methoxypyridin-4-yl)-7H-pyrrolo[2,3-d]pyrimidine-5-carboxylate] | > 500 | 10 to 500 | – | –
COc1ccccc1-c1c[nH]c2ncnc(-c3cn[nH]c3)c12 [Example 33-6, 5-(2-methoxyphenyl)-4-(1H-pyrazol-4-yl)-7H-pyrrolo[2,3-d]pyrimidine] | 10 to 500 | 10 to 500 | – | –
CCOC(=O)c1c[nH]c2ncnc(C3=CCN(C(=O)OC(C)(C)C)C3)c12 [Example 1-20, ethyl 4-[1-(tert-butoxycarbonyl)-2,5-dihydro-1H-pyrrol-3-yl]-7H-pyrrolo[2,3-d]pyrimidine-5-carboxylate] | > 500 | 10 to 500 | – | –
C/C=C(\C)C(=O)Nc1cccc(-c2ncnc3[nH]cc(C(=O)OCC)c23)c1 [Example 5-31, ethyl 4-(3-{[(2E)-2-methylbut-2-enoyl]aminol}phenyl)-7H-pyrrolo[2,3-d]pyrimidine-5-carboxylate] | > 500 | 10 to 500 | – | –
CCOC(=O)c1c[nH]c2ncnc(-c3cccc(NC(=O)NCC#N)c3)c12 [Example 9-1, Ethyl 4-(3-(3-(cyanomethyl)ureido)phenyl)-7H-pyrrolo[2,3-d]pyrimidine-5-carboxylate] | > 500 | 10 to 500 | – | –
C=C(C)C(=O)Nc1cccc(-c2ncnc3[nH]cc(-c4ccc(CN)cc4)c23)c1 [Example 19, N-(3-{5-[4-(Aminomethyl)phenyl]-7H-pyrrolo[2,3-d]pyrimidin-4-yl}phenyl)-2-methylprop-2-enamide] | > 500 | 10 to 500 | – | –
CCOC(=O)c1c[nH]c2ncnc(-c3ccnc(CO)c3)c12 [Example 1-60, ethyl 4-[2-(hydroxymethyl)pyridin-4-yl]-7H-pyrrolo[2,3-d]pyrimidine-5-carboxylate] | > 500 | 10 to 500 | – | –
CCOC(=O)c1c[nH]c2ncnc(-c3ccc4c(c3)OCO4)c12 [Example 1-48, ethyl 4-(1,3-benzodioxol-5-yl)-7H-pyrrolo[2,3-d]pyrimidine-5-carboxylate] | – | – | 66 | 3.8
CCOC(=O)c1c[nH]c2ncnc(-c3cccc(NC(=O)/C=C/c4ccccn4)c3)c12 [Example 5-16, ethyl 4-(3-{[(2E)-3-pyridin-2-ylprop-2-enoyl]amino}phenyl)-7H-pyrrolo[2,3-d]pyrimidine-5-carboxylate] | – | – | 452 | 6.6
CCOC(=O)c1c[nH]c2ncnc(-c3ccn[nH]3)c12 [Example 1-81, ethyl 4-(1H-pyrazol-5-yl)-7H-pyrrolo[2,3-d]pyrimidine-5-carboxylate] | > 500 | 10 to 500 | – | –
C=C(C)C(=O)Nc1cc(-c2ncnc3[nH]cc(C(=O)OCC)c23)cnc1OC [Example 4-32, ethyl 4-{6-methoxy-5-[(2-methylacryloyl)amino]pyridin-3-yl)-7H-pyrrolo[2,3-d]pyrimidine-5-carboxylate] | – | – | > 1500 | 0.68
CCOC(=O)c1c[nH]c2ncnc(-c3cccc(C(N)=O)c3)c12 [Example 1-12, ethyl 4-(3-carbamoylphenyl)-7H-pyrrolo[2,3-d]pyrimidine-5-carboxylate] | > 500 | 10 to 500 | – | –
CCOC(=O)c1c[nH]c2ncnc(-c3ccc(Cl)c(N)c3)c12 [Example 1-24, ethyl 4-(3-amino-4-chlorophenyl)-7H-pyrrolo[2,3-d]pyrimidine-5-carboxylate] | – | – | 125 | 7.5
C=C(CC)C(=O)Nc1cccc(-c2ncnc3[nH]cc(C(=O)OCC)c23)c1 [Example 4-8, ethyl 4-{3-[(2-methylidenebutanoyl)amino]phenyl}-7H-pyrrolo[2,3-d]pyrimidine-5-carboxylate] | – | – | > 1500 | 0.61
CCOC(=O)c1c[nH]c2ncnc(-c3cccc(NC(=O)/C(F)=C/c4ccccc4)c3)c12 [Example 5-26, ethyl 4-(3-{[(2Z)-2-fluoro-3-phenylprop-2-enoyl]amino}phenyl)-7H-pyrrolo[2,3-d]pyrimidine-5-carboxylate] | > 500 | 10 to 500 | – | –
